Experimental data: publication PMC3124791 (2011)

Target: BACE-1 (β-secretase) (Homo sapiens, UniProt P56817)
Assay: cell-free chemoluminescent BACE-1 activity assay
Type: biochemical

BACE-1 (β-secretase), sequence (P56817 46-457): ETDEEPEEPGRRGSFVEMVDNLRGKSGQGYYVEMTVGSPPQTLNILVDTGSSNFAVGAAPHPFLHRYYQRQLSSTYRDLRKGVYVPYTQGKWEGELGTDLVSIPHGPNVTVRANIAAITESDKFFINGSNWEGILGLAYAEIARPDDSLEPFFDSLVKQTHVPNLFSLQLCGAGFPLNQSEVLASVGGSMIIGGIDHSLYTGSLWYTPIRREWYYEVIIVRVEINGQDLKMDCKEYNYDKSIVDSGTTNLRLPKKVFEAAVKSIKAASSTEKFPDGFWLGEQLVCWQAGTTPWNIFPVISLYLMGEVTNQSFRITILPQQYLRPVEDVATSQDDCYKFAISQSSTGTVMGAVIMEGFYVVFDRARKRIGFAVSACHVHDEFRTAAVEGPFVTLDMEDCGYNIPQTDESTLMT

Structure (SMILES)	IC50
O=c1cc(-c2ccc(O)cc2)oc2cc(O)cc(O)c12 [apigenin, 4',5,7-Trihydroxyflavone]	34.2 µM
O=c1c(O)c(-c2ccc(O)cc2)oc2cc(O)cc(O)c12 [kaempferol, 3,5,7-Trihydroxy-2-(4-hydroxyphenyl)-4H-1-benzopyran-4-one]	27.7 µM
